Test results as given in ChEMBL document CHEMBL1201862, “PubChem BioAssay data set” (2004).
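These data come from cells grown in 96-well plates and exposed to compound for 48 hours at five concentrations. GI50 = concentration required for 50% inhibition of growth.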 The source made the active and inactive calls. Rule as the data show it: active = GI50 up to about 1.1 µM and inactive = higher.

Experiments:
Experiment in all cases: DTP human tumour cell line panel, 48 h
HCT-116 = system: HCT-116
HCT-15 = system: HCT-15
HL-60 = system: HL-60
M14 = system: M14
Malme-3M = system: Malme-3M
NCI-H460 = system: NCI-H460
RPMI-8226 = system: RPMI-8226
SF-268 = system: SF-268
SF-295 = system: SF-295
SF-539 = system: SF-539
SK-MEL-28 = system: SK-MEL-28
SK-MEL-2 = system: SK-MEL-2
SK-OV-3 = system: SK-OV-3
SNB-75 = system: SNB-75
SR = system: SR
U-251 = system: U-251
DU-145 = system: DU-145
PC-3 = system: PC-3
MDA-MB-231 = system: MDA-MB-231

Compound | GI50 (HCT-116) | GI50 (HCT-15) | GI50 (HL-60) | GI50 (M14) | GI50 (Malme-3M) | GI50 (NCI-H460) | GI50 (RPMI-8226) | GI50 (SF-268) | GI50 (SF-295) | GI50 (SF-539) | GI50 (SK-MEL-28) | GI50 (SK-MEL-2) | GI50 (SK-OV-3) | GI50 (SNB-75) | GI50 (SR) | GI50 (U-251) | GI50 (DU-145) | GI50 (PC-3) | GI50 (MDA-MB-231)
CC(=O)NC1=C(C)C(=O)c2c(nc3n2CCC3O)C1=O (configuration not stated) | 23.7 µM (inactive) | > 100 µM | 8.28 µM (inactive) | > 100 µM (inactive) | 19.1 µM (inactive) | > 87.7 µM (inactive) | 18.2 µM (inactive) | 34.8 µM (inactive) | > 100 µM (inactive) | 24.4 µM (inactive) | > 76.4 µM (inactive) | 19.5 µM (inactive) | > 61.7 µM (inactive) | > 100 µM (inactive) | 9.46 µM (inactive) | 33.1 µM (inactive) | – | – | –
COc1ccc(/C=C/c2ccnc3ccccc23)cc1 | 15.7 µM (inactive) | 18.1 µM | 6.78 µM (inactive) | 17.3 µM (inactive) | 16.7 µM (inactive) | 23.6 µM (inactive) | 10.7 µM (inactive) | 15.2 µM (inactive) | 16.9 µM (inactive) | 21.8 µM (inactive) | 14.5 µM (inactive) | 20.3 µM (inactive) | 19.1 µM (inactive) | – | 29.3 µM (inactive) | 17.1 µM (inactive) | 14.8 µM (inactive) | 18.2 µM (inactive) | –
Clc1ccc(C[P+]2(c3ccccc3)CCCCC2)cc1.[O-][Cl+3]([O-])([O-])[O-] | 60.1 µM (inactive) | > 100 µM | 24.4 µM (inactive) | 53.8 µM (inactive) | 58.5 µM (inactive) | > 100 µM (inactive) | 32.2 µM (inactive) | – | > 100 µM (inactive) | > 100 µM (inactive) | 62.8 µM (inactive) | 48.6 µM (inactive) | > 100 µM (inactive) | 37.1 µM (inactive) | 48.6 µM (inactive) | 45.5 µM (inactive) | – | – | –
C/C(=N\NC(=S)N(C)C)c1ncc[nH]1 | 3.56 µM (inactive) | 3.77 µM | 2.63 µM (inactive) | 2.31 µM (inactive) | 3.36 µM (inactive) | 3.24 µM (inactive) | 4.2 µM (inactive) | 3.56 µM (inactive) | 4.28 µM (inactive) | 2.77 µM (inactive) | 7.48 µM (inactive) | 3.69 µM (inactive) | 3.87 µM (inactive) | 7.57 µM (inactive) | 2.81 µM (inactive) | 2.23 µM (inactive) | – | – | –
O=[N+]([O-])c1cc(C2SCc3nc4ccccc4n32)ccc1Cl (configuration not stated) | 17.8 µM (inactive) | – | 16 µM (inactive) | – | 34.8 µM (inactive) | 31.8 µM (inactive) | 20.3 µM (inactive) | 20.7 µM (inactive) | 38 µM (inactive) | 27.8 µM (inactive) | 25.9 µM (inactive) | 21.2 µM (inactive) | 28.1 µM (inactive) | 28.7 µM (inactive) | 30.2 µM (inactive) | 27.2 µM (inactive) | – | – | –
CO/C(=N\N=C\c1ccc(Cl)c(Cl)c1)c1ccncc1 | > 10 µM (inactive) | > 10 µM | > 10 µM (inactive) | > 10 µM (inactive) | > 10 µM (inactive) | > 10 µM (inactive) | > 10 µM (inactive) | > 10 µM (inactive) | > 10 µM (inactive) | > 10 µM (inactive) | > 10 µM (inactive) | > 10 µM (inactive) | > 10 µM (inactive) | 9.86 µM (inactive) | 2.75 µM (inactive) | > 10 µM (inactive) | – | > 10 µM (inactive) | –
[O-][S+]1c2ccccc2SCSc2ccccc21 | > 100 µM (inactive) | > 100 µM | – | > 100 µM (inactive) | > 100 µM (inactive) | > 100 µM (inactive) | 18.2 µM (inactive) | > 100 µM (inactive) | > 100 µM (inactive) | > 100 µM (inactive) | – | > 100 µM (inactive) | > 100 µM (inactive) | – | 46.2 µM (inactive) | > 100 µM (inactive) | > 100 µM (inactive) | > 100 µM (inactive) | > 100 µM (inactive)
O=c1[nH]c(=O)n(C2CC(O)C(CO)O2)cc1C#Cc1cc(C(F)(F)F)cc(C(F)(F)F)c1 (configuration not stated) | > 22.8 µM (inactive) | > 50.7 µM | > 60.4 µM (inactive) | > 24.8 µM (inactive) | 34.8 µM (inactive) | – | > 29.6 µM (inactive) | 43.9 µM (inactive) | 17.3 µM (inactive) | 26.5 µM (inactive) | > 31.7 µM (inactive) | > 36.9 µM (inactive) | 91.2 µM (inactive) | 21.1 µM (inactive) | > 100 µM (inactive) | 18 µM (inactive) | – | – | –
Cc1cc(S(=O)(=O)O)c(NC(=O)C(=O)C2C=CCS2(=O)=O)cc1Cl (configuration not stated) | > 100 µM (inactive) | > 100 µM | > 100 µM (inactive) | > 100 µM (inactive) | > 100 µM (inactive) | > 100 µM (inactive) | > 100 µM (inactive) | > 100 µM (inactive) | > 100 µM (inactive) | > 100 µM (inactive) | > 100 µM (inactive) | > 100 µM (inactive) | > 100 µM (inactive) | > 100 µM (inactive) | > 100 µM (inactive) | > 100 µM (inactive) | – | – | –
